Experimental data published in US7846970B2, “Hydroxycitric acid derivatives and skin external preparations containing the same” (Showa Denko K.K., priority 2004, dated 2010).
Blank lines part the entries; values can stand above or below the molecule they belong to.

Key:
[1] = test system: Human white preadipocytes; test: Test (2) of use in combination with caffeine and the like, triglyceride accumulation; format: cell-based; conditions: 50 μM, 4 days
Method: (§1) After differentiation into adipocytes had been observed, the culture medium was replaced with one that contained 50 μM of (b), or 100 μM of (i), or 50 μM of (j), or 50 μM and 100 μM of (b) and (i) respectively, or 50 μM and 50 μM of (b) and (j) respectively. The incubation was continued for another 4 days. The control was incubated using a culture medium that contained no test articles.

[2] = test system: Human white preadipocytes; test: Cell survival rate (Test Example 6); format: cell-based; conditions: 4 days, 50 μM
Method: as §1

[3] = test system: Human white preadipocytes
Method: (§4) Human white preadipocytes (available from Zen-Bio Inc.) were disseminated in two T-25 flasks and were incubated at 37° C. and 5% CO2 using a white preadipocyte culture medium (PM-1, available from Zen-Bio Inc.). After several days, microscopic observation confirmed that the cells had been confluent, and the medium was replaced with a human white preadipocyte differentiation medium (DM-1, available from Zen-Bio Inc.). After three days, the differentiation medium was changed to a white adipocyte medium (AM-1, available from Zen-Bio Inc.). Incubation was continued while renewing half of the white adipocyte medium every three days.
(§5) After differentiation into adipocytes had been observed, the culture media in the flasks were each replaced with one that contained 1 mM of the test article (a) or 0.05 mM of the test article (b). The incubation was continued for another 5 days.
(§6) After 5 days of incubation, the cells were released from the flask bottom by adding trypsin and were collected by centrifugation (at 1,000 rpm for 5 minutes). The cells collected were washed two times with Dulbecco's PBS (−), and were transferred to 1.5 ml tubes, followed by freezing and thawing. […]
(§7) The test article in the extract was determined by LC/MS, and the protein in the extract was determined by the Lowry method as described in Test Example 1.

[4] = Skin permeation test (Test Example 1); format: in vitro ADME, minipig
Method: The above test articles, each 0.5% by mass, were dissolved separately in Dulbecco's PBS (−).
2-cm square skin pieces of minipig (Charles River Laboratories Inc. (United States of America)) were placed in the Netwell (manufactured by Corning Incorporated), and assay rings (Teflon® rings with a center opening) on which a silicon sealant had been applied were pressed and fixed to the epidermis of the skin. Subsequently, 2 ml of a skin culture medium (TOYOBO CO., LTD.) was added to a multiwell plate, and the Netwell was set such that skin lower portions would be soaked. Each of the test article solutions, 0.1 ml, was slowly poured into the opening of assay ring; when no leakage was confirmed, the units were sealed with multiplate seals and were allowed to stand in an incubator at 37° C. and 5% carbon dioxide.
After 4 hours, the test article solutions on the skin pieces were pipetted. The skin pieces were recovered from the Netwell, and distilled water in a washing bottle was poured thereover for washing. The assay rings were detached, and the central portions that had contacted with the solution were punched out with an 8 mm biopsy punch. The excised skin pieces were transferred to 1.5 ml tubes, and 1 ml of 0.5% trypsin solution was added to each tube. The trypsin solution was caused to permeate the skin piece for a day and a night at 4° C.
Next day, the trypsin solution was removed, and the skin pieces were washed three times each with 1 ml of distilled water and were heated in an incubator at 37° C. for 5 minutes, resulting in release of the epidermis. The epidermis that had been released and been floating was peeled with tweezers to separate the skin piece into the epidermis and the dermis. The epidermis and dermis were separately transferred to new 1.5 ml tubes and were heated in an incubator at 37° C. for 30 minutes.
Thereafter, the epidermis and the dermis were fed with 0.1 ml and 0.5 ml of distilled water, respectively, followed by freezing and thawing. […] Thus, a tissue extract was obtained.
400 μl of the reagent 4 was added to a sample tube containing 20 μl of the sample solution or the standard sample solution, followed by mixing. The mixture was allowed to stand at room temperature for at least 15 minutes. Thereafter, 40 μl of the reagent 3 was added and mixed together, and the mixture was allowed to stand at room temperature for at least 30 minutes. The absorbance at 750 nm was measured with a spectrophotometer, and the protein concentration in the sample solution was determined using a calibration curve obtained with the standard sample.

Mouse 3T3-F442A cells [5] = test: Triglyceride accumulation test (1), oil red staining; format: cell-based; conditions: 100 μM, 4 days, differentiated 3T3-F442A adipocytes
Method: Mouse 3T3-F442A cells (available from DAINIPPON PHARMACEUTICAL CO., LTD.) were disseminated on a 96-well microplate and were incubated at 37° C. and 5% CO2 over a period of 2 weeks using a DMEM culture medium (available from Invitrogen) containing 10% by mass of FCS.
(§2) After differentiation of most cells into adipocytes had been observed with a microscope, the culture medium was replaced with one that contained 100 μM of any one of the test articles (a) to (c). The incubation was continued for another 4 days. The control was incubated using a culture medium that contained no test articles.
After 4 days of incubation, the cells were washed three times with Dulbecco's PBS (−). The triglyceride accumulated in the cells was determined by oil red staining.

[6] = test system: Human white preadipocytes; test: Triglyceride accumulation test (2), oil red staining; format: cell-based; conditions: 4 days
Method: as §2, with “or 1 mM” for “of any one”, “article (a), or 10 μM, 25 μM or 50 μM of the test article (b).” for “articles (a) to (c).”
(§3) After 4 days of incubation, the cells were washed three times with Dulbecco's PBS (−). The triglyceride accumulated in the cells was determined by oil red staining. The cell survival rate was measured by a calorimetric method (570 nm) using alamar blue reagent (manufactured by Molecular Probe).

[7] = test system: Human white preadipocytes; test: Cell survival rate, alamar blue (Test Example 3); format: cell-based; conditions: 4 days
Method: as §2, with “or 1 mM” for “of any one”, “article (a), or 10 μM, 25 μM or 50 μM of the test article (b).” for “articles (a) to (c).”
as §3

Mouse 3T3-F442A cells [8] = test: Triglyceride accumulation test (3): lowest concentration at which TG/cell survival ratio is not more than 80; format: cell-based; conditions: lowest tested concentration with TG/cell survival ratio not more than 80 (control 100); 4 days
Method: Likewise in Test Example 2, mouse 3T3-F442A cells (available from DAINIPPON PHARMACEUTICAL CO., LTD.) were disseminated on a 96-well microplate and were incubated at 37° C. and 5% CO2 over a period of 2 weeks using a DMEM culture medium (available from Invitrogen) containing 10% by mass of FCS.
as §2, with “contained” for “contained 100 μM of”, “(a), (b) and (d)” for “(a)”, “(h) in an amount of 40 μM, 50 μM, 100 μM, 150 μM, 200 μM, 300 μM, 400 μM, 500 μM or […].” for “(c).”
After 4 days of incubation, the cells were washed three times with Dulbecco's PBS (−). The triglyceride accumulated in the cells, and the cell survival rate were measured in similar manners as in Test Example 3.

[9] = test system: Human white preadipocytes; test: Test for confirmation of breakdown of hydroxycitric acid derivative (amounts in cell extract, LC/MS); conditions: 1 mM test article, 5 days, human adipocytes
Method: as §4, §5, §6, §7

Mouse 3T3-F442A cells [10] = test: Test (1) of use in combination with caffeine, triglyceride accumulation; format: cell-based; conditions: 0.05 mM (b) alone, which is the control (100%); 4 days
Method: Mouse 3T3-F442A cells were incubated in a similar manner as in Test Example 2. After differentiation into adipocytes had been observed, the culture medium was replaced with one that contained 0.05 mM and 0.1 mM of the test article (b) and the test article (i), respectively. The incubation was continued for another 4 days. The control was incubated using a culture medium that contained 0.05 mM of the test article (b).
After 4 days of incubation, the triglyceride accumulated in the cells was determined in a similar manner as in Test Example 2.

[11] = dermis, test article 0.5% by mass in Dulbecco's PBS (-), 0.1 ml, 4 hours, 37°C
[12] = epidermis, test article 0.5% by mass in Dulbecco's PBS (-), 0.1 ml, 4 hours, 37°C

Molecule: C[N+](C)(C)C[C@H](O)CC(=O)[O-].Cl [(j), L-carnitine hydrochloride, reference compound]
(1/2) × 100 (triglyceride amount / cell survival rate) [1]: 91
Accumulated triglyceride amount (% relative to control): 1 [1]: 93 % relative to control
Cell survival rate (% relative to control): 2 [2]: 102 % relative to control

Molecule: CCCCCCCCCCCCCCCC(=O)OC(CC(=O)O)(C(=O)O)C(O)C(=O)O (centres unmarked) [hydroxycitric acid-2-palmitate]
Breakdown within adipocytes (in words) [3]: broken down within adipocytes to generate hydroxycitric acid

Molecule: Hydroxycitric acid calcium salt [(a), reference compound]
Determined value: amount of hydroxycitric acid in dermis [4, 11]: 0.2 nmol/mg skin protein
Determined value: amount of hydroxycitric acid in epidermis [4, 12]: 0.4 nmol/mg skin protein
Accumulated triglyceride amount (% relative to control) (Mouse 3T3-F442A cells [5]): 98 % relative to control
(1/2) × 100 (triglyceride amount / cell survival rate) ([6]; 100 μM): 98
Accumulated triglyceride amount (% relative to control): 1 ([6]; 100 μM): 86 % relative to control
(1/2) × 100 (triglyceride amount / cell survival rate) ([6]; 1 mM): 85
Accumulated triglyceride amount (% relative to control): 1 ([6]; 1 mM): 80 % relative to control
Cell survival rate (% relative to control): 2 ([7]; 100 μM): 88 % relative to control
Cell survival rate (% relative to control): 2 ([7]; 1 mM): 94 % relative to control
Concentration for 20% reduction of TG amount relative to control (Mouse 3T3-F442A cells [8]): 1e+06 µM
Determined value: amount of hydroxycitric acid in cell extract [9]: 0.6 nmol/mg protein

Molecule: Hydroxycitric acid monomethyl ester-2-palmitate sodium salt [(c)]
Accumulated triglyceride amount (% relative to control) (Mouse 3T3-F442A cells [5]): 84 % relative to control

Molecule: Hydroxycitric acid-2-behenate sodium salt [(h)]
Concentration for 20% reduction of TG amount relative to control (Mouse 3T3-F442A cells [8]): 40 µM

Molecule: Hydroxycitric acid-2-caprate sodium salt [(e)]
Concentration for 20% reduction of TG amount relative to control (Mouse 3T3-F442A cells [8]): 200 µM

Molecule: Hydroxycitric acid-2-laurate sodium salt [(f)]
Concentration for 20% reduction of TG amount relative to control (Mouse 3T3-F442A cells [8]): 150 µM

Molecule: Hydroxycitric acid-2-myristate sodium salt [(g)]
Concentration for 20% reduction of TG amount relative to control (Mouse 3T3-F442A cells [8]): 100 µM

Molecule: Hydroxycitric acid-2-octanoate sodium salt [(d)]
Concentration for 20% reduction of TG amount relative to control (Mouse 3T3-F442A cells [8]): 200 µM

Determined value: amount of hydroxycitric acid-2-palmitate in dermis [4, 11]: 3.8 nmol/mg skin protein
Determined value: amount of hydroxycitric acid-2-palmitate in epidermis [4, 12]: 3.4 nmol/mg skin protein
Molecule: Hydroxycitric acid-2-palmitate sodium salt [(b)]
Skin permeation (in words) ([4]; minipig skin, compared with (a)): can permeate the skin deeper into the dermis layer than hydroxycitric acid calcium salt (a)
Accumulated triglyceride amount (% relative to control) (Mouse 3T3-F442A cells [5]): 52 % relative to control
(1/2) × 100 (triglyceride amount / cell survival rate) ([6]; 10 μM): 78
Accumulated triglyceride amount (% relative to control): 1 ([6]; 10 μM): 78 % relative to control
(1/2) × 100 (triglyceride amount / cell survival rate) ([6]; 25 μM): 71
Accumulated triglyceride amount (% relative to control): 1 ([6]; 25 μM): 72 % relative to control
(1/2) × 100 (triglyceride amount / cell survival rate) ([6]; 50 μM): 66
Accumulated triglyceride amount (% relative to control): 1 ([6]; 50 μM): 65 % relative to control
Cell survival rate (% relative to control): 2 ([7]; 10 μM): 100 % relative to control
Cell survival rate (% relative to control): 2 ([7]; 25 μM): 101 % relative to control
Cell survival rate (% relative to control): 2 ([7]; 50 μM): 98 % relative to control
Concentration for 20% reduction of TG amount relative to control (Mouse 3T3-F442A cells [8]): 50 µM
Accumulated triglyceride amount (% relative to control) (Mouse 3T3-F442A cells [10]): 100 % relative to control
(1/2) × 100 (triglyceride amount / cell survival rate) [1]: 75
Accumulated triglyceride amount (% relative to control): 1 [1]: 75 % relative to control
